Patent US20230242669A1, “ANTIBODY THAT BINDS ERBB-2 AND ERBB-3” (Merus N.V., priority 2014, published 2023)

Legend:
BT-474 and SKBR-3 cells = assay: BT-474 and SKBR-3 growth in […] with HRG (morphology, PCA); type: cell-based, human
Method: The cells were tested at the company Ocello based in Leiden, the Netherlands that grows cells in three dimensional […]® and uses principle component analysis to distinguish non-treated cells from treated cells. 2000 SK-BR-3 or 2250 BT474 cells were seeded in 15µl […]® per well of a 384 well plate (Greiner 781091 ). […] In addition a dose-dependent titration of HRG was included as a positive control. Each dose was tested in quadruplicate. Cells were incubated for 7 days in a cell culture incubator at 37° C., 5% CO2. Next, the cells were fixed and actin cytoskeleton of the cells was stained with phalloidin and the nuclei are stained with Hoechst. Next, fluorescent images were taken at different levels through the gel (Z-stack) and the images were superimposed. A broad range of morphological features were measured (800 in total). Only features that differed between medium and HRG treatments were selected for analysis. […] Both multiparameter and single parameter analyses were made. For single parameter measurements, t-tests were performed to compare treatments (HRG or antibody) to medium. P-values for each point were determined. […]
The assay was performed in […]®, as described above, and morphological features were analyzed. […]

N87 cells = assay: HRG driven N87 proliferation assay; type: cell-based, human
Method: Upregulation of NRG1-β1 is a key resistance mechanism against HER2 targeted therapies (Wilson, 2012). […] N87 cells were cultured in RPMI 1640 supplemented with 10% heat inactivated FBS. For the proliferation assay subconfluent cell cultures of N87 cells were washed with PBS trypsinized and trypsin was inactivated by adding culture medium. Cells were washed twice in large volumes of assay medium (RPMI 1640 medium containing 0.05% BSA and 10 µg/ml Holo Transferrin). Antibodies were diluted in a semi-log titration that varied from 1-0.0001 µg/ml. Cells were added at a density of 10000 cells/well in the presence of 100 ng/ml final concentration of HRG. The cells were cultivated for 3 days at 37° C., 5% CO2, in 95% relative humidity. ALAMAR BLUE™ (INVITROGEN®) was added according to the manufacturer’s instructions and incubated for 6 hours at 37° C., 5% CO2, in 95% relative humidity in the dark. Fluorescence was measured at 550 nm excitation with 590 nm emission wavelength.
Upregulation of NRG 1-β1 is a key resistance mechanism against HER2 targeted therapies (Wilson, 2012). […] To this aim N87 cells were cultured in RPMI 1640 supplemented with 10% heat inactivated FBS. […] Fluorescence was measured at 550 nm excitation with 590 nm emission wavelength.

JIMT-1 tumor = assay: JIMT-1 xenograft study; type: in vivo, CB.17 SCID mice; conditions: 2.5 and 25 mg/kg ip qwk × 4
Method: JIMT-1 human breast carcinoma cells were grown in DMEM containing 10% fetal bovine serum, 100 units/mL penicillin G sodium, 100 µg/mL streptomycin sulfate, 25 µg/mL gentamicin, and 2 mM glutamine until the time of implantation. At the day of implantation JIMT-1 breast cells were harvested during log phase growth and resuspended in cold PBS. […] Each mouse was injected subcutaneously in the right flank with 5 ×10^6 tumor cells (0.2 mL cell suspension). The tumors were measured with a caliper in two dimensions to monitor size as the mean volume twice per week. Once tumors had reached approximately 100-150 mm^3 in size animals were enrolled in the efficacy study. Outlier animals -tumor volume - were removed and the mice were randomly distributed into groups of 10 mice each. Mice were injected once weekly (antibody) or daily (lapatinib) for a period of four weeks. Details of the treatment groups are depicted in Table 11.
Tumor sizes were measured weekly by caliper measurement.

## PB4188: bispecific HER2xHER3 IgG: HER2 arm MF3958, HER3 arm MF3178
BT-474 and SKBR-3 cells; BT-474 and SKBR-3, in the presence of HRG
  Activity compared to pertuzumab + trastuzumab, PB3448 and MEHD7945A: superior activity
BT-474 and SKBR-3 cells; SKBR-3, 10 ng/ml HRG
  Effect on HRG induced proliferation and branching/invasion phenotype: completely revert the HRG induced phenotype
N87 cells; 100 ng/ml HRG
  Anti-proliferative activity on N87: superior activity over anti-HER2 or anti-HER3 monoclonal antibodies
N87 cells; increasing HRG 0.04-39.5 nM
  Anti-proliferative activity on N87 versus PG3178: superior activity compared to the parental anti-HER3 monoclonal antibody
JIMT-1 tumor
  Efficacy on tumor size: more potent than lapatinib or the combination pertuzumab and trastuzumab
